Entries after “also recorded” stand apart in the source; their conditions may differ.
Tests used:
Type in all cases: cell-based, human
HL-60 cells [1] = assay: Fura-2 measurement of agonist-induced calcium mobilization with and without BAPTA, media without calcium
Description: (§1) Cell culture—Non-transformed HL-60 and Jurkat cells were obtained from and cultured as recommended by American Type Culture Collection (ATCC, Rockville, Md.) as previously described (Beebe, S. J., et al. (2002). IEEE Trans. Plasma Sci. 30:1 Part 2, 286-292; Beebe, S. J., et al. (2003). FASEB J. 17, 1493-1495). Cells were removed from log phase growth and suspended in Hanks Balanced Salt Solution (HBSS) in the presence or absence of Ca^2+ and Mg^2+. When calcium was omitted, cells were washed several times in buffer without added calcium. In other experiments, the calcium chelator BAPTA was added to chelate intracellular calcium. Cells were loaded with BAPTA-AM and washed in HBSS before the addition of agonists.
To be certain that BAPTA was able to chelate all intracellular calcium, two agents that mobilize calcium by two different mechanisms were used and the calcium concentration in the cell was directly measured using the fluorescent calcium indicator fura-2. Cells were loaded with Fura2 and BAPTA and tested in media without calcium. The first agonist tested was the purinergic agonist ATP, which leads to the release of intracellular calcium through a phospholipase C— and IP3-mediated mechanism through the IP3 receptor in the endoplasmic reticulum (Berridge, M. J. et al. (1998) Nature 395, 645-648). This is followed by an influx of calcium through store-operated calcium channels in the plasma membrane. […] The second agonist tested was cyclopiazonic acid (CPA), which causes increases in calcium by inhibiting the calcium-ATPase in the endoplasmic reticulum. This pump replenishes the intracellular calcium stores after actions by calcium-mobilizing agents. […] Thus, BAPTA inhibited rapid and transient as well as slow and sustained calcium mobilization by agents that acted on a plasma membrane receptor and an endoplasmic reticulum calcium pump.

Jurkat cells = assay: Caspase activation (z-VAD-FITC, flow cytometry) in nsPEF-exposed, BAPTA-loaded Jurkat cells; details: energy density ~1.7 J/cc
Description: FIG. 2 describes the effect of intracellular calcium chelation by BAPTA on caspase activation in human Jurkat cells. Jurkat cells were incubated with BAPTA-AM ([…]) in Hanks Balanced salt solution (HBSS) with calcium for 30 minutes and washed in HBSS with calcium. The BAPTA loaded cells were exposed to nsPEF as indicated. The electric fields were adjusted to provide a similar energy density (˜1.7 J/cc) under all conditions. After exposure to nsPEF, the cells were incubated with a cell permeable, irreversible inhibitor of active caspases, z-VAD-FITC for 20 minutes before analysis by flow cytometry (Beebe et al., (2003) FASEB J 17, 1493-1495). The values for caspase activity are expressed as the geometric mean z-VAD-FITC fluorescence determined in 15,000 individual cells. […]
(§2) Determination of caspase activation in vivo—Caspase activity was determined in vivo using a fluorescent-labeled, irreversible caspase inhibitor, VAD-fmk-FITC (Val-Ala-Asp-fluoromethylketone labeled with fluoroisothiocyanate) that is specific for the active site of the enzyme (see Beebe et al., 2003). Briefly, cells were exposed to nsPEF, incubated in the presence of the fluorescent caspase inhibitor for 20 minutes, washed to remove background fluorescence and subjected to flow cytometry. Values are expressed as the geometric mean FITC fluorescence. […]

HL-60 cells [2] = assay: Caspase activation (z-VAD-FITC, flow cytometry) in nsPEF-exposed, BAPTA-loaded HL-60 cells; details: pulses at 10, 60 and 300 ns, equalized energy density
Description: Experiments with HL-60 cells in the presence and absence of BAPTA cells were carried out as described for Jurkat cells in FIG. 2 (n=4).
as §1, with “Cells were loaded with BAPTA-AM and washed in HBSS before the addition of agonists.” left out
as §2

HL-60 cells [3] = assay: Fluorometric analysis (fura-2) of intracellular free calcium [Ca2+]i in HL-60 cells; details: for change in [Ca2+]i: 0.1 μM
Description: Cell culture-Non-transformed HL-60 cells were used for this study and were obtained from American Type Culture Collection (ATCC, Rockville, Md.). […] 2 mM CaCl2 was added to this buffer when loading cells with fluorescent indicators unless otherwise stated. In some experiments extracellular calcium was omitted by washing the cells several times in the same physiological buffer without added calcium. […] Post pulse, the cell suspension was removed from the pulsing cuvette and assayed. Fluorometric Analysis of Internal Calcium Response-To analyze the response of a greater number of cells, the fluorescent indicator fura-2 (Molecular Probes, Eugene, Oreg.) was used with a fluorometer. HL-60 cells were incubated with fura-2/AM (2 μM) in the physiological buffer described above containing 2 mM calcium for 45 minutes at 37° C. The cells were then washed and resuspended in calcium-free or calcium-containing buffer at a concentration of 7.7×10^6 cells/ml. […] Pulser® cuvettes could not be used to perform calcium measurements in the fluorometer because of the aluminum plates, which act to block either the excitation light or the emission light depending on the placement of the cuvette in the fluorometer. Therefore, the cells were first placed in the fluorometer cuvette, to obtain a baseline reading, cells were then removed from the fluorometer cuvette with a Pasteur pipette and added to the Pulser® cuvette.

[4] = cells loaded with Fura2 and BAPTA

With `Nc1ncnc2c1ncn2[C@@H]1O[C@H](COP(=O)(O)OP(=O)(O)OP(=O)(O)O)[C@@H](O)[C@H]1O` [ATP] the “calcium mobilization (fura-2)” value (HL-60 cells [1]; absence of BAPTA) was “rapid and transient increase”.

In the case of `O=C(O)CN(CC(=O)O)c1ccccc1OCCOc1ccccc1N(CC(=O)O)CC(=O)O` [BAPTA], the “effect on nsPEF-induced caspase activation” value (Jurkat cells; pulses at 10 and 60 ns) is reported as “no significant effect”, the “reduction of nsPEF-induced caspase activity” value (Jurkat cells; pulses with 300 ns durations) is reported as “about 25%” and the “effect on nsPEF-induced caspase activity” value (HL-60 cells [2]) is reported as “did not significantly affect”. For the same compound, the “effect on ATP-induced calcium mobilization” value (HL-60 cells [1]; [4]) was “completely inhibited” and the “effect on CPA-mediated calcium mobilization” value (HL-60 cells [1]; [4]) was “completely inhibited”.

For `O=c1ccn([C@@H]2O[C@H](COP(=O)(O)OP(=O)(O)OP(=O)(O)O)[C@@H](O)[C@H]2O)c(=O)[nH]1` [UTP], the “[Ca2+]i on addition of 1.0 mM calcium to treated cells (capacitative calcium entry)” value (HL-60 cells [3]; 10 μM UTP in low calcium-containing buffer, then 1.0 mM calcium added) was “rapid rise”, the “reduction of peak [Ca2+]i effect when added after one 60 ns 15 kV/cm pulse” value (HL-60 cells [3]; 10 μM, extracellular calcium deficient, vs UTP added before a pulse) was “approximately 60%” and the “increase in [Ca2+]i” value (HL-60 cells [3]; 10 μM, extracellular calcium present) was “approximately 300 nM”. For the same compound, the “effect on [Ca2+]i compared with 10 μM” value (HL-60 cells [3]; 100 μM, extracellular calcium present) was “did not produce any larger effect”, the “effect on [Ca2+]i as % of that seen with 10 μM UTP” value (HL-60 cells [3]; 0.1 M (so in the source), extracellular calcium present) was “approximately 20%” and the “increase in [Ca2+]i” value (HL-60 cells [3]; absence of extracellular calcium, transient) was “approximately 50 nM”. For the same compound, the “[Ca2+]i increase by one 15 kV/cm pulse after the agonist, as % of pulse before agonist addition” value (HL-60 cells [3]; extracellular calcium deficient) was “approximately 25%”, the “reduction of [Ca2+]i increase by one 15 kV/cm pulse given after the agonist” value (HL-60 cells [3]; extracellular calcium present) was “approximately 65%” and the “reduction of [Ca2+]i effect when added after one 15 kV/cm pulse” value (HL-60 cells [3]; extracellular calcium present, vs UTP by itself) was “approximately 60%”.

`COc1ccc([C@@H]2Sc3ccccc3N(CCN(C)C)C(=O)[C@@H]2OC(C)=O)cc1` [diltiazem] was tested, and the “effect on nsPEF-induced increases in [Ca2+]i” value (HL-60 cells [3]; HL-60 cells) was “no effect”.

With `C/C=C(/C)C(=O)O[C@H]1C(C)=C2[C@H]([C@@H]1OC(=O)CCCCCCC)[C@@](C)(OC(C)=O)C[C@H](OC(=O)CCC)[C@@]1(O)[C@H]2OC(=O)[C@@]1(C)O` [thapsigargin] the “[Ca2+]i response when added after one 15 kV/cm pulse” value (HL-60 cells [3]; 0.1 μM at approximately 50 seconds, 1 mM extracellular calcium) was “did not increase”, the “change in [Ca2+]i” value (HL-60 cells [3]; extracellular calcium absent) was “smaller and more transient increase” and the “change in [Ca2+]i” value (HL-60 cells [3]; extracellular calcium present) was “prolonged increase; also recorded: gradual and sustained increase”. For the same compound, the “reduction of [Ca2+]i increase by one 15 kV/cm pulse given after the agonist” value (HL-60 cells [3]; extracellular calcium present) was “approximately 85%”.

— patent US20060161221A1, “Activation of calcium-mediated cell functions in cells and tissues, including aggregation of human platelets, by nanosecond pulsed electric fields” (priority 2004, published 2006)
